Like-named read-outs stand apart in the source and are kept apart here.
Legend:
[1] = system: Staphylococcus epidermidis ATCC 12228; assay: Carrier test: H2O2 solutions treated with 400 to 420 nm light for 1 minute, applied to bacterial carriers after a dwell time; type: cell-based
Description: The solutions were applied to the targets after the dwell times of 1 minute, 5 minutes, 10 minutes, 30 minutes, 1 hour, 12 hours, 24 hours, 2, days, 5 days, and 7 days. After 7 days of dwell time, all solutions were treated with light again for 1 minute, and a target was treated after 1 minute of dwell time.

[2] = system: Desulfoviberio vulgaris Hildenborough (DvH); details: combined with radiation of 300 nm to 500 nm; in the presence of DvH, not replicated in sterile environment
Description: In Example 1, carbon steel coupons were incubated in the presence of oxygen and, as the oxidizing agent compound, hydrogen peroxide, combined with radiation of certain wavelengths of 300 nm to 500 nm in a synergistic reaction, with and without an inoculum of DvH. The metal loss of the carbon steel coupons was measured.

DvH = system: DvH
Description: In example 2, steel coupons were incubated in cultures of DvH for three days with and without exposure to an oxidizing agent compound, specifically hydrogen peroxide, combined with radiation of certain wavelengths 300-500 nm in a synergistic reaction and then the coupons were measured to determine the amount of metal loss due to corrosion.

[3] = 7 days*: reactivation with light of 400 to 420 nm for 1 minute, 1 minute dwell, control 9.80E+04
[4] = 7 days*: reactivation with light of 400 to 420 nm for 1 minute, applied after 1 minute dwell time
[5] = applied 1 min after solution exposed to light (400 to 420 nm, 1 minute)
[6] = applied 1 min after solution exposed to light, control 6.04E+05 CFU per carrier
[7] = applied 5 min after solution exposed to light
[8] = applied 5 min after solution exposed to light, control 6.04E+05
[9] = applied 10 min after solution exposed to light
[10] = applied 10 min after solution exposed to light, control 6.04E+05
[11] = applied 30 min after solution exposed to light
[12] = applied 30 min after solution exposed to light, control 6.04E+05
[13] = applied 1 hr after solution exposed to light
[14] = applied 1 hr after solution exposed to light, control 6.04E+05
[15] = applied 12 hr after solution exposed to light
[16] = applied 12 hr after solution exposed to light, control 9.20E+04
[17] = applied 24 hr after solution exposed to light
[18] = applied 24 hr after solution exposed to light, control 1.33E+05
[19] = applied 2 days after solution exposed to light
[20] = applied 2 days after solution exposed to light, control 3.00E+05
[21] = applied 5 days after solution exposed to light
[22] = applied 5 days after solution exposed to light, control 4.50E+04
[23] = applied 7 days after solution exposed to light
[24] = applied 7 days after solution exposed to light, control 9.80E+04

SMILES | % Reduction vs. Control [1, 3] | CFU per carrier [1, 4] [CFU per carrier] | CFU per carrier [1, 5] [CFU per carrier] | % Reduction vs. Control [1, 6] [%] | CFU per carrier [1, 7] [CFU per carrier] | % Reduction vs. Control [1, 8] [%] | CFU per carrier [1, 9] [CFU per carrier] | % Reduction vs. Control [1, 10] [%] | CFU per carrier [1, 11] [CFU per carrier] | % Reduction vs. Control [1, 12] [%] | CFU per carrier [1, 13] [CFU per carrier] | % Reduction vs. Control [1, 14] [%] | CFU per carrier [1, 15] [CFU per carrier] | % Reduction vs. Control [1, 16] | CFU per carrier [1, 17] [CFU per carrier] | % Reduction vs. Control [1, 18] [%] | CFU per carrier [1, 19] [CFU per carrier] | % Reduction vs. Control [1, 20] [%] | CFU per carrier [1, 21] [CFU per carrier] | % Reduction vs. Control [1, 22] [%] | other results
OO [0.3% H2O2, hydrogen peroxide] | nr | 1.03E+05 | 1.10E+04 | 98.18 | 3.00E+04 | 95.04 | 1.98E+05 | 67.24 | 7.00E+04 | 88.42 | 7.00E+04 | 88.42 | 1.27E+05 | nr | 1.40E+04 | 89.47 | 2.64E+05 | 12.00 | 4.40E+04 | 2.22 | CFU per carrier [1, 23]: 7.70E+04 CFU per carrier; % Reduction vs. Control [1, 24]: 21.43%
OO [3% H2O2, hydrogen peroxide] | 89.80% | 1.00E+04 | 7.00E+04 | 88.42 | 7.00E+04 | 88.42 | 3.10E+04 | 94.87 | 2.80E+04 | 95.37 | 7.10E+04 | 88.25 | 1.80E+04 | 80.43% | 2.10E+04 | 84.21 | 9.00E+04 | 70.00 | 3.29E+03 | 92.69 | CFU per carrier [1, 23]: 1.50E+04 CFU per carrier; % Reduction vs. Control [1, 24]: 84.69%; microbes eliminated (microbes; 3% hydrogen peroxide together with radiation of 300 to 600 nanometers): 99.9999%; microbes eliminated (microbes; 3% solution alone, no radiation): approximately 30%
OO [hydrogen peroxide] | – | – | – | – | – | – | – | – | – | – | – | – | – | – | – | – | – | – | – | – | effect on corrosion (weight loss) of carbon steel coupons [2]: reduce and/or eliminate corrosion in the presence of DvH; metal loss of coupons without treatment relative to coupons with treatment (DvH; 100 ppm (0.01%) hydrogen peroxide combined with radiation 300-500 nm, three days in DvH cultures): ~2 fold; corrosion of metal coupons (DvH; in the presence of hydrogen peroxide combined with radiation 300-500 nm, DvH cultures, three days): little to no corrosion

Reference: patent US11033648B2, “Method, system and device for reducing microbial concentration and/or biofilm formation and/or reducing mineral and chemical concentrations to purify contaminated surfaces and substances” (EMODs Technology, L.L.C., priority 2019, dated 2021)
